Key:
[1] = test system: angiogenesis induced by hFGF-B in the CAM; experiment: Chick chorioallantoic membrane (CAM) assay, 14C-proline incorporation into collagenous protein; type: in vivo, chick embryo; settings: for effect in the CAM assay: summary of the two experiments
Procedure: BTO-964 [methyl 3,5-diiodo-4(4'-methoxyphenoxy) benzaldehyde], and BTO-967 [methyl 3,5-diiodo-4(4'-methoxyphenoxy)-thiobenzoate] were tested in the CAm assay. The endpoint of the CAM assay was a quantiative determination of basement membrane biosynthesis by measuring the incorporation of ^14 C-proline into Type IV collagenous protein.
The CAM assay involves the development of live chick embryos in Petri dishes under special sterile conditions. Therefore, only limited numbers of embryos can be used for evaluation of compounds in a single experiment. BTO-964 and BTO-967 was tested in separate assays. A known angiogenesis inhibitor, 2-methoxyestradiol (2-ME), was used as the positive control, and human fibroblast growth factor (hFGF) was used to induce angiogenesis in the CAM.
For testing, a minimum amount of acetone-methanol (1:1) was added to the test compounds for sterilization. The acetone-methanol mixture was then evaporated to dryness in a sterile hood. The compounds were dissolved in dimethyl sulfoxide (DMSO) first and then diluted with saline containing methylcellulose. The final concentrations were 2% DMSO and 0.5% methylcellulose. all test solutions were added to each CAM in […] aliquots.
Fresh fertile eggs were incubated for three days in a standard egg incubator. On Day 3, eggs were cracked under sterile conditions and embryos were placed in 20×100 mm plastic Petri dishes and cultivated at 37° C. in an embryo incubator with a water reservoir on the bottom shelf. Air was continuously bubbled into the water reservoir by using a small pump so that the humidity in the incubator was kept constant. Observations were made daily to ensure that all embryos were healthy. Dead or unhealthy embryos were removed from the incubator immediately to avoid contamination. On Day 9, a sterile silicone ring cup was placed on each CAM and 0.5 mCi of ^14 C-proline with or without the test compound plus 2.5 ng of hFGF dissolved in saline containing 0.5% methylcellulose was delivered into each ring cup in a sterile hood. 2-ME was tested in parallel to serve as a reference compound. After addition of test materials, the embryos were returned to the incubator and cultivation continued. On Day 12, all embryos were transferred to a cold room at 4-10° C.
Using the procedure outlined in Maragoudakis, et al., (1989) J. Pharm. Exp. Ther. 251:679-682, the embryos were placed on ice and a piece of CAM 10 mm in diameter was cut off under each ring cup and placed in a separate tube. To each tube was added 1.0 ml of phosphate-buffered saline (PBS, pH 7.3) containing 0.11 mg cycloheximide and 0.17 mg dipyridyl. The tubes were placed in a boiling water bath for 10 min and then cooled to room temperature. The PBS in each tube was discarded after centrifugation at 3000×G for 10 min. The CAM residue was washed once with 3 ml of 15% TCA and then three times with 3 ml of 5% TCA. Centrifugation was carried out as described above between each washing. At this point all non-protein bound radioactivity was removed, and the CAM containing the newly synthesized ^14 C-collagenous protein was suspended in 0.9 ml of 0.1 N NaOH and 1.1 ml of HEPES buffer at pH 7.4. The pH of the sample was neutralized with 0.8 N HCl, using phenol red as indicator.
To digest the ^14 C-collagenous protein, 7.5 units of collagenase and 500 nmol of calcium chloride in […] of HEPES buffer was added to the above samples, and mixtures were incubated at 37° C. for 4 h. The reaction was stopped by adding 1.0 ml of 20% TCA containing 5 mg of tannic acid into each tube. After vortex mixing, the samples were centrifuged at 3000×G for 10 min. An aliquot of the clear supernatant was taken for scintillation counting to quantitate the radiolabeled tripeptides corresponding to basement membrane collagen and other collagenous materials synthesized by the CAM from ^14 C-proline. The CAM pellets in each tube were solubilized in 0.5 ml of 1.0 N NaOH by boiling in a water bath for 5 min. […]

MDA MB 468 (breast) = experiment: In vitro cytotoxicity screen, alamar Blue assay; type: cell-based; settings: Homo sapiens, 168 h, 7 days post exposure
Procedure: (§1) Human tumor cell lines were exposed continuously to varying concentrations of test agents, i.e., BTO-956, BTO-964, BTO966 and BTO-967) and the viability of the cells was measured at set time points (1, 3, and 7 days) using the alamar Blue™ assay. […] This fluorescence can be measured with a fluorimeter, whereby the signal is directly proportional to cell number.
(§2) Various tumor cell lines of human origin representing a wide diversity of cancer pheno- and genotypes were exposed in vitro to the agents to evaluate the drug's effective range. Tumor lines screened included MDA MB 231 (breast), MCF-7 (breast), MDA MB 468 (breast), Siha (squamous cell carcinoma), A549 (non-small cell lung), HL-60 (leukemia), Ovcar-3 (ovarian). The test agents were prepared in serial dilutions from 10 mM stock solutions in DMSO yielding a 66-fold dose range of 20 μM, 10 μM, 3 μM, 1 μM and 0.3 μM concentrations. In each case, cells were maintained at 37° C. under 5 percent CO2 in air. All cell lines were incubated in Dulbecco's modified Eagle medium (DMEM) supplemented with 10% heat-inactivated fetal bovine serum and graded doses of BTO-956, 964, 966, or 967. 5-Fluorouracil (5-FU) was included as a positive control in experiments with two of the cell lines. The experiments were conducted in 96-well tissue culture plates (Falcon) with an initial seeding density of 1000 cells per well in 250 μl aliquots. The next day, medium was replaced with 100 μl of drug dilutions in triplicate.
(§3) After a 7 day exposure to the various agents, the alamarBlue dye was diluted to 20% in DMEM, and 100 μl was added to each well. The cells were incubated for 8 hours until obvious color changes indicated sufficient amounts of reduced dye for quantitation. Relative cell number was evaluated by florimetry on a Millipore 2300 CytoFluor fluorescence measurement system. Measurements were taken directly from 96-well plates after excitation at 560 nm with concomitant emission at 590 nm.

[2] = test system: Siha (squamous cell carcinoma); experiment: In vitro cytotoxicity screen, alamar Blue assay; type: cell-based; settings: Homo sapiens, 168 h, 7 days post exposure
Procedure: as §1, §2, §3

MDA MB 231 (breast) = experiment: In vitro cytotoxicity screen, alamar Blue assay; type: cell-based; settings: Homo sapiens, 168 h; MDA MB 231; 7 days post exposure; read-out: IC50
Procedure: as §1, §2, §3

MCF-7 (breast) = experiment: In vitro cytotoxicity screen, alamar Blue assay; type: cell-based; settings: Homo sapiens, MCF7, 168 h, 7 days post exposure
Procedure: as §1, §2, §3

[3] = test system: A549 (non-small cell lung); experiment: In vitro cytotoxicity screen, alamar Blue assay; type: cell-based; settings: Homo sapiens, 168 h; A549; 7 days post exposure; read-out: IC50
Procedure: as §1, §2, §3

Ovcar-3 (ovarian) = experiment: In vitro cytotoxicity screen, alamar Blue assay; type: cell-based; settings: Homo sapiens, 168 h, 7 days post exposure
Procedure: as §1, §2, §3

Compound | % Inhibition ([1]; 8.3 μg/CAM, BTO-964 experiment) [%] | 14C-Proline Incorporated into Collagenous Protein (cpm/mg protein) (mean ± S.E.) ([1]; 8.3 μg/CAM, BTO-964 experiment, control 11200 ± 829) [cpm/mg_protein] | % Inhibition ([1]; 25 μg/CAM, BTO-964 experiment) [%] | 14C-Proline Incorporated into Collagenous Protein (cpm/mg protein) (mean ± S.E.) ([1]; 25 μg/CAM, BTO-964 experiment, control 11200 ± 829) [cpm/mg_protein] | % Inhibition ([1]; 75 μg/CAM, BTO-964 experiment) [%] | 14C-Proline Incorporated into Collagenous Protein (cpm/mg protein) (mean ± S.E.) ([1]; 75 μg/CAM, BTO-964 experiment, control 11200 ± 829) [cpm/mg_protein] | effect in the CAM assay [1] | IC50 (MDA MB 468 (breast)) [nM] | IC50 [2] [nM] | IC50 (MDA MB 231 (breast)) [nM] | IC50 (MCF-7 (breast)) [nM] | IC50 [3] [nM] | IC50 (Ovcar-3 (ovarian)) [nM] | % Inhibition ([1]; 8.3 μg/CAM, BTO-967 experiment) [%] | 14C-Proline Incorporated into Collagenous Protein (cpm/mg protein) (mean ± S.E.) ([1]; 8.3 μg/CAM, BTO-967 experiment, control 6300 ± 696) [cpm/mg_protein] | % Inhibition ([1]; 25 μg/CAM, BTO-967 experiment) [%] | 14C-Proline Incorporated into Collagenous Protein (cpm/mg protein) (mean ± S.E.) ([1]; 25 μg/CAM, BTO-967 experiment, control 6300 ± 696) [cpm/mg_protein] | % Inhibition ([1]; 75 μg/CAM, BTO-967 experiment) [%] | 14C-Proline Incorporated into Collagenous Protein (cpm/mg protein) (mean ± S.E.) ([1]; 75 μg/CAM, BTO-967 experiment, control 6300 ± 696) [cpm/mg_protein]
COc1ccc(Oc2c(I)cc(C=O)cc2I)cc1 [BTO-964, 3,5-Diiodo-4-(4'-methoxyphenoxy)benzadehyde] | 15 | 9526 ± 1492 | 27 | 8121 ± 1096 | 10 | 10076 ± 928 | antiangiogenic effect | 4000 | 17000 | 2000 | 2400 | > 20000 | 1800 |  |  |  |  |  | 
COC(=S)c1cc(I)c(Oc2ccc(OC)cc2)c(I)c1 [BTO-967, methyl 3,5-diiodo-4-(4'-methoxyphenoxy)thiobenzoate] |  |  |  |  |  |  | antiangiogenic effect | 1500 | 20000 | 2000 | 1000 | 5500 | 800 | 13 | 5222 ± 692 | 3 | 6165 ± 1288 | 11 | 5581 ± 1182
